Literature values as cited in patent publication US20210121480A1, “STABLE PHARMACEUTICAL COMPOSITIONS CONTAINING ESTRADIOL AND PROGESTERONE FOR ORAL ADMINISTRATION” (SLAYBACK PHARMA LLC, priority 2019, published 2021).
Converted amounts (≈) assume the structure as drawn.

Settings: reported

CC(=O)[C@H]1CC[C@H]2[C@@H]3CCC4=CC(=O)CC[C@]4(C)[C@H]3CC[C@]12C [Progesterone]
aqueous solubility: 7 ± 0 µg/mL (≈ 22.3 µM)
